Data set [1] concerns Staphylococcus aureus COL (MRSA, non-β-lactamase producing). The data set is described as follows: Broth microdilution MIC, S. aureus COL. Type of data set: cell-based. The note with it: Staphylococcus aureus COL (MRSA, non-β-lactamase producing); for MIC: read-out: MIC S. a. COL. How it is done:
(§1) Compounds were evaluated for antimicrobial activity against a panel of bacterial strains using a broth microdilution assay performed as recommended by the NCCLS (NCCLS (National Committee for Clinical Laboratory Standards). 1993. Methods for dilution antimicrobial susceptibility tests for bacteria that grow aerobically. NCCLS Document M7-A3, 1993. In: NCCLS Antimicrobial Susceptibility Testing, 3rd Ed.)
(§2) The minimum inhibitory concentration (MIC) is defined as the lowest concentration of a compound that prevents the growth of the bacteria.
(In broth dilution the organism is exposed to a series of concentrations in liquid medium.)

The subject of data set [2] is Staphylococcus aureus Smith (MSSA). The data set is described as follows: Broth microdilution MIC, S. aureus Smith. Type of data set: cell-based. The note with it: Staphylococcus aureus Smith (MSSA); for MIC: read-out: MIC S. a. Smith. How it is done: as §1, §2
Data set [3] relates to Staphylococcus aureus 76 (MRSA, β-lactamase producing). Briefly: Broth microdilution MIC, S. aureus 76. Type of data set: cell-based. The note with it: Staphylococcus aureus 76 (MRSA, β-lactamase producing); for MIC: read-out: MIC S. a. 76. The procedure:
as §1, §2

Data set [4] is described as follows: Human serum binding by ultrafiltration. In kind it is in vitro ADME. The procedure:
Binding of several representative compounds of this invention in pooled human serum was determined using ultrafiltration. Compounds were incubated in serum for 10 minutes at 37° C. in a shaking water bath. Serum ultrafiltrate was accomplished by centrifugation (Amicon Centrifree) for 20 minutes at 25° C. Compound content in the ultrafiltrate was quantified by HPLC. An ultrafilrate obtained by following the same procedure with no added compound was used as a standard.

For data set [5], the system named is Enterococcus faecium ATCC 35667. Briefly: Broth microdilution MIC, E. faecium ATCC 35667. The note with it: Enterococcus faecium ATCC 35667; for MIC: ATCC35667, read-out: MIC E. f. 35667. In kind it is cell-based. How it is done: as §1, §2
Data set [6] deals with Enterococcus faecalis ATCC 29212. Briefly: Broth microdilution MIC, E. faecalis ATCC 29212. Type of data set: cell-based. The settings on record: Enterococcus faecalis ATCC 29212; for MIC: ATCC29212, read-out: MIC E. f. 29212. The procedure:
as §1, §2

The test system of data set [7] is Staphylococcus aureus ATCC 29213 (MSSA). Briefly: Broth microdilution MIC, S. aureus ATCC 29213. In kind it is cell-based. The settings on record: Staphylococcus aureus ATCC 29213 (MSSA); for MIC: read-out: MIC S. a. 29213. The procedure: as §1, §2
In the next data set the test system is S. aureus strain Smith. The data set is described as follows: Experimental infection of mice, ED50. Type of data set: in vivo, Swiss-Webster mice. The note with it: Staphylococcus aureus; 50% efficacious dose, S. aureus Smith, mice challenged intraperitoneally, compound subcutaneously at 0 and 2 h, total dose, 72 h survival; read-out: ED50, mg/kg (95% C.I.). How it is done:
Staphylococcus aureus strain Smith (ATCC 13709, penicillin-susceptible) or strain 76 (methicillin-resistant) was cultured overnight at 37° C. in brain-heart infusion broth (BHIB). The following morning, a portion of the culture was transferred to fresh BHIB and incubated for an additional 4-5 hours at 37° C. The cells were harvested by centrifugation, washed twice with PBS, and adjusted to the desired inoculum amount. The cell suspension was mixed with an equal volume of sterile 14% hog-gastric mucin (Comber K. R.; Osborne C. D.; Sutherland R.: Comparative effects of amoxicillin and ampicillin in the treatment of experimental mouse infections. Antimicrobial Agents and Chemotherapy 7(2):179-185, 1975). The inoculum was kept in an ice bath until used (preferably in less than one hour).
Male Swiss-Webster mice were challenged intraperitoneally with 0.5 mL of a bacterial suspension of S. aureus strain Smith (LD50). Test compounds were administered subcutaneously in 0.1 mL volumes immediately after inoculation and 2 hours later. […] The total dose associated with 50% survival (ED50) was determined using the probit method (Pasiello, A. P., J. M. Essigmann, and G. N. Wogan.: Rapid and accurate determination of median lethal dose (LD50) and its error with a small computer. J Toxicol. Environ. Health. 3:797-809, 1977).

[8] abbreviates: pooled human serum, ultrafiltration, 10 minutes at 37° C.

In brackets after ≈: the same amount, converted by molar mass. Read-outs that look alike come from different tables or passages of the source. A value given as a limit tells only on which side of the number the result lay.

As usually defined, the MIC is the smallest concentration in the dilution series that meets the test's criterion for growth inhibition. In the case of `Nc1nc(C(=NO)C(=O)N[C@@H]2C(=O)N3C(C(=O)O)=C(Sc4cnns4)CSC23)c(Cl)s1` (stereo partly drawn) [Compound 43, (7R)-7-[2-(2-Amino-5-chlorothiazol-4-yl)-2-hydroxyiminoacetylamino]-8-oxo-3-([1,2,3]thiadiazol-5-ylsulfanyl)-5-thia-1-aza-bicyclo[4.2.0]oct-2-ene-2-carboxylic acid], the MIC was 0.5 µg/mL (≈ 0.962 µM) in data set [1]; 0.06 µg/mL (≈ 0.115 µM) in data set [2]; 1 µg/mL (≈ 1.92 µM) in data set [3]; 0.5 µg/mL (≈ 0.962 µM) in data set [5]; 0.125 µg/mL (≈ 0.24 µM) in data set [6]; less than 0.06 µg/mL in data set [7]. Also, in data set [4] (setting [8]), the “HSB, human serum binding” value is 96% (−).

As for `Nc1nc(/C(=N/OCC2CC2)C(=O)N[C@@H]2C(=O)N3C(C(=O)O)=C(Sc4ccnn4-c4ccccc4)CS[C@H]23)cs1` [Compound 19], the minimal inhibitory concentration (MIC) was determined as 4 µg/mL (≈ 6.69 µM) in data set [1]; 0.5 µg/mL (≈ 0.837 µM) in data set [2]; 8 µg/mL (≈ 13.4 µM) in data set [3]; 16 µg/mL (≈ 26.8 µM) in data set [5]; 16 µg/mL (≈ 26.8 µM) in data set [6]; 0.5 µg/mL (≈ 0.837 µM) in data set [7]. The ED50 in the data set with S. aureus strain Smith was more than 10 mg/kg.

As to `Nc1nc(/C(=N/OC2CCCC2)C(=O)N[C@@H]2C(=O)N3C(C(=O)O)=C(Sc4ccnn4-c4ccccc4)CS[C@H]23)cs1` [Compound 13], the MIC in data set [1] came out at 2 µg/mL (≈ 3.27 µM); in data set [2] it was 0.5 µg/mL (≈ 0.817 µM); in data set [3], 4 µg/mL (≈ 6.54 µM); in data set [5], 4 µg/mL (≈ 6.54 µM); in data set [6] it was 2 µg/mL (≈ 3.27 µM); in data set [7], 0.5 µg/mL (≈ 0.817 µM). The ED50 in the data set with S. aureus strain Smith was more than 10 mg/kg.

Consider `NC(=O)NCCSCc1cnccc1SC1=C(C(=O)O)N2C(=O)[C@@H](NC(=O)/C(=N\O)c3nc(N)sc3Cl)[C@H]2SC1` [Compound 30], for which the “MIC S. a. COL” value in data set [1] was 4 µg/mL (≈ 6.2 µM). Besides, the “MIC S. a. Smith” value in data set [2] was found to be 0.5 µg/mL (≈ 0.775 µM). For the same compound, the “MIC S. a. 76” value in data set [3] stood at 4 µg/mL (≈ 6.2 µM). For the same compound, the “HSB, human serum binding” value in data set [4] is recorded as 96%. In addition, the “MIC E. f. 29212” value in data set [6] turned out to be 0.125 µg/mL (≈ 0.194 µM). In addition, the “MIC S. a. 29213” value in data set [7] is 0.5 µg/mL (≈ 0.775 µM).

Take `CCC(CC)O/N=C(\C(=O)N[C@@H]1C(=O)N2C(C(=O)O)=C(Sc3ccnn3-c3ccccc3)CS[C@H]12)c1csc(N)n1` [Compound 17]: the MIC in data set [1] stood at 2 µg/mL (≈ 3.26 µM); in data set [3], 4 µg/mL (≈ 6.52 µM); in data set [5], 4 µg/mL (≈ 6.52 µM); in data set [6] it was 2 µg/mL (≈ 3.26 µM); in data set [7], 0.5 µg/mL (≈ 0.815 µM). In addition, the ED50 with S. aureus strain Smith was more than 10 mg/kg.

On to `Nc1nc(/C(=N/O)C(=O)N[C@@H]2C(=O)N3C(C(=O)O)=C(Sc4ccncc4CO)CS[C@H]23)c(Cl)s1` [Compound 28], for which the MIC in data set [1] came to 2 µg/mL (≈ 3.68 µM); in data set [2], 0.125 µg/mL (≈ 0.23 µM); in data set [3], 2 µg/mL (≈ 3.68 µM); in data set [5], 1 µg/mL (≈ 1.84 µM); in data set [6], 0.25 µg/mL (≈ 0.46 µM); in data set [7] it was 0.5 µg/mL (≈ 0.921 µM). For the same compound, the “HSB, human serum binding” value in data set [4] (setting [8]) is reported as more than 99%.

On to `Nc1nc(/C(=N/OCCF)C(=O)N[C@@H]2C(=O)N3C(C(=O)O)=C(Sc4ccnn4-c4ccccc4)CS[C@H]23)c(Cl)s1` [Compound 16], for which the MIC in data set [1] came to 2 µg/mL (≈ 3.2 µM); in data set [2], 0.5 µg/mL (≈ 0.801 µM); in data set [3], 4 µg/mL (≈ 6.41 µM); in data set [5], 4 µg/mL (≈ 6.41 µM); in data set [6], 1 µg/mL (≈ 1.6 µM); in data set [7] it was 0.5 µg/mL (≈ 0.801 µM).

On to `Cc1nnc(SC2=C(C(=O)O)N3C(=O)[C@@H](NC(=O)/C(=N\O)c4nc(N)sc4Cl)[C@H]3SC2)s1` [Compound 33], for which, in data set [1], the “MIC S. a. COL” value is 4 µg/mL (≈ 7.49 µM). Moreover, the “MIC S. a. Smith” value in data set [2] is 0.5 µg/mL (≈ 0.936 µM). For the same compound, the “MIC S. a. 76” value in data set [3] worked out at 8 µg/mL (≈ 15 µM). The “MIC E. f. 35667” value in data set [5] was 4 µg/mL (≈ 7.49 µM). Also, the “MIC E. f. 29212” value in data set [6] is 1 µg/mL (≈ 1.87 µM). For the same compound, in data set [7], the “MIC S. a. 29213” value is 1 µg/mL (≈ 1.87 µM).

For the origin of these results see patent US6599893B2, “Cephalosporin antibiotics and prodrugs thereof” (Essential Therapeutics, Inc., priority 2000, dated 2003).
